Measurements as given in patent publication US11028069B2, “Salt of substituted piperidine compound” (TAIHO PHARMACEUTICAL CO., LTD., priority 2016, dated 2021).
Counter-ions that a name gives are not always drawn.

Key:
[1] = Stability test (purity) by liquid chromatography after storage; type: physicochemical; settings: for purity (%) in samples, 40° C. (open system): crystals left at 40° C. (open system) for 1 month; for purity (%) in samples, 60° C. (open system): crystals left at 60° C. (open system) for 1 month; for purity (%) in samples, under light irradiation: crystals left under light irradiation (1200000 Lux·hr) for 1 month; for purity (%) in samples, before starting test: crystals
Experimental: The measurement by liquid chromatography was conducted according to the following test conditions. • Equipment: Agilent Technologies, Inc., 1200 Series Binary LC System • Mobile phase A: 10 mM Na2HPO4 aqueous solution (pH 6.5) • Mobile phase B: Acetonitrile • Gradient: described in Table 1 • Column: Ascentis Express C18, 150 mm×4.6 mm i.d., 2.7 μm • Measurement wavelength: 210 nm
The crystals of the hydrochloride salt, the mesylate salt, the potassium salt, the sodium salt, and the free form of Compound 1 obtained in Example 1 and Comparative Examples 1 to 4 were each left under conditions at 40° C. (open system), at 60° C. (open system), and under light irradiation (1200000 Lux·hr) for 1 month. Subsequent measurement of purity by liquid chromatography indicated the purity change between before and after the test was 0.2% or less in any of the conditions.

[2] = Stability test (solid change) by DSC measurement; type: physicochemical; settings: crystals, 10° C./min, room temperature to 300° C.
Experimental: The DSC measurement was conducted according to the following test conditions. • Equipment: TA Instruments Q1000 • Sample: about 5 mg • Rate of temperature increase: 10° C./min • Measurement temperature: Room temperature to 300° C.

[3] = Absorption test, oral administration to mice, plasma concentration by LC/MS; type: in vivo; settings: BALB/cA mice, 50 mg/kg in terms of Compound 1, suspended in 0.5% HPMC
Experimental: The hydrochloride salt of Compound 1 was suspended in 0.5% HPMC, and orally administered to BALB/cA mice at 50 mg/kg in terms of the dose of Compound 1. At 0.5, 1, 2, 4, and 6 hours after the oral administration, the blood was collected from the eyeground, and the plasma was obtained. The compound concentration in the obtained plasma was measured by LC/MS (Agilent Technologies Inc. Agilent 1200, AB Sciex Pte. Ltd. AB Sciex API400) and the oral absorption was evaluated.

[4] = Solubility measurement, Japanese Pharmacopoeia Dissolution test; type: physicochemical; settings: crystals; for solubility, 1st fluid for dissolution test: Japanese Pharmacopoeia 1st fluid for dissolution test; for solubility, 2nd fluid for dissolution test: Japanese Pharmacopoeia 2nd fluid for dissolution test
Experimental: The solubility measurement was conducted on the hydrochloride salt, the mesylate salt, the potassium salt, and the sodium salt of Compound 1 and the free form of Compound 1. Specifically, the solubility of the samples: the crystals of the hydrochloride salt of Compound 1 produced in Example 1; the crystals of the mesylate salt of Compound 1 produced in Comparative Example 1; the crystals of the potassium salt of Compound 1 produced in Comparative Example 2; the crystals of the sodium salt of Compound 1 produced in Comparative Example 3; and the crystal of the free form of Compound 1, in the 1st and 2nd fluids for dissolution test according to Japanese Pharmacopoeia was measured according to Japanese Pharmacopoeia, Dissolution test.

[5] = Dynamic vapor sorption system (DVS) analysis (hygroscopicity); type: physicochemical; settings: increase of humidity from 5% to 75% RH, 25° C.
Experimental: The dynamic vapor sorption system (DVS) analysis was conducted under the following conditions. • Equipment: TA Instruments VTI SGA-100 • Sample: about 10 mg • Measurement temperature: 25° C. • RH steps: 5-95-1% RH by 5% RH
The hygroscopicity of the hydrochloride salt of Compound 1 obtained in Example 1 and the potassium salt obtained in Comparative Example 2 was examined by dynamic vapor sorption system (DVS) analysis. The adsorption and desorption data was collected at 5% relative humidity (RH) intervals in the range of 5% to 95% RH. Before the measurement, the temperature was increased at 1° C./min to 25° C. under nitrogen purging and the salts were dried for up to 6 hours until the weight change in 5 minutes became less than 0.0100%. At the time of the measurement, up to 2 hours of equilibration was conducted until the weight change in 5 minutes became less than 0.0100%.

Compound | purity (%) in samples, 40° C. (open system) [1] [%] | purity (%) in samples, 60° C. (open system) [1] [%] | purity (%) in samples, under light irradiation [1] [%] | purity (%) in samples, before starting test [1] [%] | DSC chart: endothermic and exothermic processes at relatively low temperatures (solid change) [2] | Plasma concentration AUC0-6 h [3] [µM·h] | solubility, 1st fluid for dissolution test [4] [µg/mL] | solubility, 2nd fluid for dissolution test [4] [µg/mL] | weight change in DVS analysis ([5]; listed as hydrochloride salt of Compound 1) | weight change in DVS analysis ([5]; listed as hydrochloride salt of the present invention) | weight change in DVS analysis ([5]; listed as sodium salt of Compound 1) [%] | weight change in DVS analysis [5]
Cc1cc(Nc2nc(CC3(C(=O)O)CCN(C(=O)c4cccc(Cl)c4Cl)CC3)ccc2F)n[nH]1 [Hydrochloride salt, 1-(2,3-dichlorobenzoyl)-4-((5-fluoro-6-(5-methyl-1H-pyrazol-3-ylamino)pyridin-2-yl)methyl)piperidine-4-carboxylic acid] | 99.2 | 99.3 | 99.4 | 99.4 | such charts were not obtained | 18.2 | >1000 | >1000 | less than 0.5% | less than 0.5% | – | –
Cc1cc(Nc2nc(CC3(C(=O)O)CCN(C(=O)c4cccc(Cl)c4Cl)CC3)ccc2F)n[nH]1 [Free form, 1-(2,3-dichlorobenzoyl)-4-((5-fluoro-6-(5-methyl-1H-pyrazol-3-ylamino)pyridin-2-yl)methyl)piperidine-4-carboxylic acid] | – | – | – | – | such charts were not obtained | 0.43 | 24 | 6 | – | – | – | –
Cc1cc(Nc2nc(CC3(C(=O)O)CCN(C(=O)c4cccc(Cl)c4Cl)CC3)ccc2F)n[nH]1 [Sodium salt, 1-(2,3-dichlorobenzoyl)-4-((5-fluoro-6-(5-methyl-1H-pyrazol-3-ylamino)pyridin-2-yl)methyl)piperidine-4-carboxylic acid] | – | – | – | – | charts suggesting endothermic and exothermic processes at relatively low temperatures were obtained | – | >1000 | >1000 | – | – | ≥ 40 | –
Cc1cc(Nc2nc(CC3(C(=O)O)CCN(C(=O)c4cccc(Cl)c4Cl)CC3)ccc2F)n[nH]1 [Potassium salt, 1-(2,3-dichlorobenzoyl)-4-((5-fluoro-6-(5-methyl-1H-pyrazol-3-ylamino)pyridin-2-yl)methyl)piperidine-4-carboxylic acid] | 99.7 | 99.8 | 99.8 | 99.8 | charts suggesting endothermic and exothermic processes at relatively low temperatures were obtained | – | >1000 | 730 | – | – | – | exceeded 14%
Cc1cc(Nc2nc(CC3(C(=O)O)CCN(C(=O)c4cccc(Cl)c4Cl)CC3)ccc2F)n[nH]1 [Mesylate salt, 1-(2,3-dichlorobenzoyl)-4-((5-fluoro-6-(5-methyl-1H-pyrazol-3-ylamino)pyridin-2-yl)methyl)piperidine-4-carboxylic acid] | – | – | – | – | such charts were not obtained | – | 490 | 420 | – | – | – | –
